The source of these data is US12485182B2, “Proteoglycan mimetics for enhanced wound healing, angiogenesis, and vascular repair” (The Regents of the University of California, priority 2018, dated 2025).

Entries after “also recorded” stand apart in the source; their conditions may differ. Positions of bridges follow the written chain, without caps; N, C: chain ends. Non-standard residues stand in square brackets, D forms with d. No end group written: not given here.

Assay [1] deals with platelets. Kind of assay: Platelet binding and activation on a collagen surface in vitro. It is filed as cell-based.
The test system of assay [2] is collagen. Description: DS-SILY binding to collagen.
In assay [3] the test system is EC. Kind of assay: EC migration on collagen surfaces. It is filed as cell-based.
Assay [4] relates to denuded arteries. Description: Ossabaw pig angioplasty model, neointimal hyperplasia (1-month recovery). It is filed as in vivo. Conditions: with and without stents, vs sham. On the procedure:
An In vivo Ossabaw pig angioplasty model was used to assess platelet deposition (acute) and neointimal hyperplasia (1-month recovery) with DS-SILY treatment. Porous angioplasty balloons were employed for delivery of soluble DS-SILY to the target arteries in the peripheral vasculature of pigs. Renal, femoral, and iliac arteries were denuded by balloon expansion, followed by delivery through the porous balloon. Arteries were treated with and without the use of a bare metal stent and the healing response was assessed for neointimal hyperplasia. Neointimal hyperplasia was assessed by histology after 1-month recovery by measuring the distance between the internal elastic lamina and the lumen, or between a stent post and the lumen (FIG. 32).

Assay [5] deals with platelets (platelet-rich plasma). Kind of assay: Platelet binding under flow on collagen-coated microchannels. It is filed as cell-based. Conditions: PRP, shear rate 750 s^−1, 4 minutes. As for the experimental part:
Flow kits from Ibidi (Martinsried, Germany) were used to measure […] recruitment under flow conditions. Microchannels were coated with equine fibrillar type I collagen (Chronolog, Havertown, PA) diluted in 0.85% sodium chloride and incubated for one hour at room temperature. Unbound collagen was removed by rinsing three time with 1×PBS. The treatment molecule (DS-SILY, LXW7-DS-SILY, or LXW7-(SILY)2) was incubated in the channel for 30 minutes at room temperature, and unbound peptidoglycan was rinsed with 1× PBS.
Next, 15 mL of blood was drawn into sodium citrate vacutainers by venipuncture and centrifuged for 20 minutes at 200 Gs and 37° C. and the top layer of platelet-rich plasma (PRP) was collected. A syringe pump was used to flow PRP through microchannels at 4.2 mL/hr for a shear rate of 750 s^−1. After 4 minutes, the channels were rinsed with 100 μL, PBS to remove unbound cells. Adherent cells were stained with 10 μM CellTracker Green (ThermoFisher Scientific) in media for 30 minutes at 37° C. Channels were rinsed with 1× PBS and total fluorescence and cell number in the channels were quantified using ImageJ (NIH, Bethesda, MD).

Assay [6] relates to denuded arteries. Kind of assay: Ossabaw pig angioplasty model, platelet deposition (acute). It is filed as in vivo. Conditions: vs saline. On the procedure: An In vivo Ossabaw pig angioplasty model was used to assess platelet deposition (acute) and neointimal hyperplasia (1-month recovery) with DS-SILY treatment. Porous angioplasty balloons were employed for delivery of soluble DS-SILY to the target arteries in the peripheral vasculature of pigs. Renal, femoral, and iliac arteries were denuded by balloon expansion, followed by delivery through the porous balloon. Arteries were treated with and without the use of a bare metal stent and the healing response was assessed for neointimal hyperplasia.
Arteries for assessing the acute response of balloon injury were harvested within hours of angioplasty. The arteries were rinsed with saline and fixed in 10% formalin overnight, and prepared for SEM visualization. […] High magnification images in FIG. 31 show numerous projections and spreading of platelets on sham control arteries, indicative of platelet activation.

The test system of assay [7] is SMCs. Description: DS-SILY effects on SMCs. It is filed as cell-based.
Assay [8] has as its system ischemic wounds. As to conditions: exogenous VEGF; cited from earlier work.
The subject of assay [9] is chick chorioallantoic membrane. Description: Ex ovo CAM assay, treatments eluting from collagen gels. Type of assay: in vivo. As to conditions: after 24 hours. As for the experimental part:
Fertilized Hyline eggs obtained from the Avian Facility at UC Davis were incubated at 37° C. for 72 hours with 6 rotations per day at 80% humidity in a Grumbach egg incubator. On day 3, eggs were cracked open into disinfected weighboats (VWR) and covered with lids from square petri dishes (Fisher), and the embryos developed over a week in the incubator. On day 10, treatments encapsulated in collagen I gels were gently placed on the developing CAM. For experiments involving treatments freely eluting from the collagen gels, 100 μL of gel was polymerized in a 10-mm diameter rubber mold against a sterilized glass slide, and 1 treatment gel and 1 control gel was placed per CAM. The number of vessels in a 2-mm radius immediately surrounding the gel was manually counted in imageJ immediately after placement and 24 hours later to determine changes surrounding vessels. The change in vessels over 24 hours for treatment gels were normalized to the respective change in the control gel on the same developing embryo.

Assay [10] deals with HMVEC monolayer. Kind of assay: Endothelial monolayer permeability (transwell, RITC-dextran). Type of assay: cell-based, human. Conditions: by 72 hours. On the procedure:
The following day, an additional 50,000 cells were seeded to each insert and allowed to grow for another 24 hours. Media was then removed and replaced with 0.5 mL media to the bottom well and 0.1 mL of treatment media to the insert for 10 minutes. Treatment was removed and 0.3 mL of 1 mg/mL RITC-dextran in media was then added to each transwell insert and allowed to permeate for 30 minutes. Sample permeate was then assayed on a SpectraMax M5 plate reader for fluorescence (excitation: 570 nm; emission: 590 nm). RITC-dextran solutions and sample permeates were then aspirated and replaced with another 0.1 mL of treatment media in the transwell insert and 0.5 mL media in the bottom chamber. This procedure was repeated daily over 4 days. Treatments were also compared to inserts with cells removed by rubbing away with a pipette tip to determine the barrier efficacy of the monolayer and the degree of increased permeability.

Assay [11] deals with VEGFR2. Description: Western-blot, phosphorylation of VEGFR2 (Tyr1175). Type of assay: cell-based. As to conditions: surface-grafted LXW7. From the text:
(§1) FIG. 34. Effects of LXW7 on EC biological functions. (A) Proliferation of ECs on LXW7-treated surfaces and D-biotin treated surface (control) assessed by MTS assay. Data were expressed as mean±standard deviation: **p<0.01, ***p<0.001 (n=4). (B) Western-blot analysis of the effect of LXW7 on phosphorylation of VEGFR2 (Tyr1175) and phosphorylation of ERK1/2 (left panels) and quantified by densitometry (right panels). Data were expressed as mean±standard deviation: *p<0.05, **p<0.01 (n=4).
(§2) To test the ability of LXW7 to promote endothelialization, we evaluated polymer-based small diameter vascular grafts (ID 1 mm) functionalized with LXW7 via Click chemistry in a rat carotid artery bypass model (FIG. 35). […] After 6 weeks post implantation, 5 out of 6 LXW7-modified grafts were patent versus only 1 out of 6 control grafts was patent (FIG. 35). […] This confirms that LXW7 coating on the luminal surface of synthetic vascular grafts can generate a “living” endothelium.

Assay [12] has as its system HCAECs. Description: Attachment of HCAECs to peptide-treated surfaces. Type of assay: cell-based, human. Conditions: biotin-peptide on Avidin-coated wells. The source says: (§3) FIG. 33. Attachment of cells and platelets to LXW7 and GRGD (SEQ ID NO: 2) treated surfaces. (A) Images of attached HCAECs (left panels), THP-1 monocytes (middle panels) and platelets (right panels) on surfaces treated by D-Biotin (a-c) (control), LXW7 (d-f) or GRGD (SEQ ID NO: 2) (g-i). Scale bars in a, b, d, e, g and h are 50 μm. Scale bars in c, f and i are 20 μm. (B) The number of cells or platelets attached on different treated surfaces were quantified and statistical analyses were performed. Data were expressed as mean±standard deviation: **p<0.01 (n=4).
(§4) Using primary artery-derived ECs and blood-derived EPCs as living probes to screen One-Bead-One-Compound (OBOC) combinatorial peptide libraries, several high-affinity binding ligands against the αvβ3 integrin on the surface of EPCs/ECs were identified. […] The LXW7 peptide, when grafted to surfaces, supports adhesion and spreading of EPCs and human coronary ECs, but not platelets or monocytes. […] After washing with PBS and blocking with 1% BSA wells were ready for cell attachment with 5×10^4 HCAECs or THP-1 monocytes suspended in the respective maintenance medium, or freshly isolated platelets at a density of 5×10^7 platelets/cm^2 incubated for 16 h at 37° C., 5% CO2. […] Quantification of images was performed using the Image J software (NIH).

In assay [13] the test system is platelets. Kind of assay: Attachment of platelets to peptide-treated surfaces. It is filed as cell-based. As to conditions: biotin-peptide on Avidin-coated wells.
Excerpt: as §3, §4

The test system of assay [14] is primary EPCs/ECs. Description: LXW7 binding to primary EPCs/ECs. Type of assay: cell-based. As for the experimental part: (§5) Using primary artery-derived ECs and blood-derived EPCs as living probes to screen One-Bead-One-Compound (OBOC) combinatorial peptide libraries, several high-affinity binding ligands against the αvβ3 integrin on the surface of EPCs/ECs were identified. […] The LXW7 peptide, when grafted to surfaces, supports adhesion and spreading of EPCs and human coronary ECs, but not platelets or monocytes. Culture plates, 24-well, were coated with 500 μL of 20 μg/mL Avidin for 1 hour at 37° C. followed by washing with PBS and coating with either 500 μL molar equivalents of D-biotin, LXW7-biotin, or GRGD (SEQ ID NO: 2)-biotin. After washing with PBS and blocking with 1% BSA wells were ready for cell attachment with 5×10^4 HCAECs or THP-1 monocytes suspended in the respective maintenance medium, or freshly isolated platelets at a density of 5×10^7 platelets/cm^2 incubated for 16 h at 37° C., 5% CO2. The cells were washed with PBS, and fixed in 10% formalin for 20 min. For evaluation of HCAEC, the cells were blocked with 1% BSA and incubated overnight with mouse anti-CD31 antibody (1:100; Abcam) in 1% BSA at 4° C., followed by probing with goat anti-mouse Alexa Fluor 594 conjugate in 1% BSA. Nuclei were stained with DAPI. Images were captured using an Olympus IX81 microscope. […] Quantification of images was performed using the Image J software (NIH).

Assay [15] relates to ECs. Kind of assay: Proliferation of ECs on LXW7-treated surfaces (MTS assay). Type of assay: cell-based. Conditions: surface-grafted LXW7 vs D-biotin control.
Excerpt: as §1, §2
For orientation: Tetrazolium assays rely on reduction of a dye to a coloured formazan, in cell work by metabolically active cells.

Assay [16] deals with ERK1/2. Kind of assay: Western-blot, phosphorylation of ERK1/2. As to conditions: surface-grafted LXW7. It is filed as cell-based.
Excerpt: as §1, §2

The subject of assay [17] is platelets. Kind of assay: LXW7 binding to platelets. It is filed as cell-based. On the procedure: as §5
In assay [18] the test system is THP-1 monocytes. Description: Attachment of THP-1 monocytes to peptide-treated surfaces. As to conditions: biotin-peptide on Avidin-coated wells. It is filed as cell-based.
Excerpt: as §3, §4

The test system of assay [19] is THP-1 monocytes. Description: LXW7 binding to THP-1 monocytes. It is filed as cell-based. On the procedure: as §5

“DS-SILY: antithrombotic proteoglycan mimetic; dermatan sulfate with collagen-binding SILY peptides (RRANAALKAGELYKSILYGSG; not fully specified; also: conjugated to dermatan sulfate backbone, attachment not given here)”: in assay [1], the “inhibition of platelet binding and activation on a collagen surface” value is given as about 90%. Further, the binding to collagen result in [2] is “high affinity”. For the same substance, the “promotion of EC migration compared to control collagen surfaces” value in assay [3] is recorded as “up to 32%”. For the same substance, in [4], the neointimal hyperplasia result was “minimal intimal hyperplasia is observed”. Moreover, in [5], the “platelet binding under flow” value is given as “low platelet binding”. The “platelet activation (morphology) on denuded artery” value in [6] (SEM) is on record as “remained largely rounded”. Besides, in assay [6] (delivery through porous balloon after balloon angioplasty), the “platelet binding on denuded artery” value is recorded as “platelets are scarcely found on the denuded artery; also recorded: almost completely inhibited platelet binding”. Also, in [7], the “SMC migration and proliferation” value was “suppresses SMC migration and proliferation”; the inflammatory cytokine production entry was “suppresses inflammatory cytokine production”; the “protein production by SMCs” value was “suppresses, but does not eliminate protein production by SMCs”.

With VEGF, in assay [8], the “increase in granulation tissue formation” value is “up to 150%”. In addition, the vasculogenic activity entry in assay [9] (2 μg/mL) is listed as “comparable vasculogenic activity”. Also, the “monolayer permeability vs untreated controls” value in assay [10] was “significantly different from untreated controls”.

As to “cyclic cGRGDdvc ([dC]GRGD[dD][dV][dC]; disulfide 1-8 (inferred)) [LXW7, cyclic octapeptide ligand against the αvβ3 integrin]”, the “phosphorylation of VEGF2 receptor” value in assay [11] is “stimulated”. Besides, in [12], the “HCAEC binding to treated surface” value is recorded as “supported robust HCAEC binding”. Moreover, the “platelet binding to treated surface” value in assay [13] is “not monocyte or platelet binding”. Besides, in assay [14], the “binding to primary EPCs/ECs” value was “bind strongly”. For the same substance, the cell proliferation result in assay [15] was “stimulated cell proliferation”. In addition, in assay [16], the “phosphorylation of ERK ½” value is on record as “stimulated”. Besides, the binding to platelets result in assay [17] is listed as “weakly”. In addition, the “monocyte binding to treated surface” value in [18] was “not monocyte or platelet binding”. Further, the “binding to THP-1 monocytes” value in assay [19] was “does not bind”. Moreover, the surrounding vessel growth entry in [9] (100 μM eluted from collagen gels) is given as “either decreased or caused no changes in surrounding vessel growth”.
